Laboratory results taken from patent publication US9119837B2, “Use of sEH inhibitors as analgesics” (The Regents of the University of California, priority 2005, dated 2015).

Key:
pain or itch = assay: Topical EETs in the methods of the invention (comparison of EET regioisomers); format: in vivo; conditions: topical administration
sEH = target: T1, sEH (Homo sapiens, UniProt P34913); assay: Inhibition of sEH activity; format: biochemical
T1 sequence (P34913 1-555): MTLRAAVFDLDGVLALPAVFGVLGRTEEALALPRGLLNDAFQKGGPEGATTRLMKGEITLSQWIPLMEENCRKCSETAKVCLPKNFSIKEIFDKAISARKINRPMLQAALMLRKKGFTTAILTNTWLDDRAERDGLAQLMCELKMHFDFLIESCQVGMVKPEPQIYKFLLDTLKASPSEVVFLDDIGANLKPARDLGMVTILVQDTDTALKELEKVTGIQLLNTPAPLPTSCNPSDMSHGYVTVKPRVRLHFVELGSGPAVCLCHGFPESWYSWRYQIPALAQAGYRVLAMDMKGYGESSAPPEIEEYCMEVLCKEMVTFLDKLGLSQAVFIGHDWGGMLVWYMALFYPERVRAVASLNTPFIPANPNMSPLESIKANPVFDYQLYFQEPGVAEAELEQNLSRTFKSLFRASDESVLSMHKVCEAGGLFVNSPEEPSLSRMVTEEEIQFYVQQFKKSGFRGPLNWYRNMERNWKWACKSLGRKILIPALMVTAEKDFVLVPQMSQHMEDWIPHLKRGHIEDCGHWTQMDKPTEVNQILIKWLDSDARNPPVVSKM
Source text: Any of a number of standard assays for determining epoxide hydrolase activity can be used to determine inhibition of sEH. For example, suitable assays are described in Gill, et al., Anal Biochem 131, 273-282 (1983); and Borhan, et al., Analytical Biochemistry 231, 188-200 (1995)). Suitable in vitro assays are described in Zeldin et al., J Biol. Chem. 268:6402-6407 (1993). Suitable in vivo assays are described in Zeldin et al., Arch Biochem Biophys 330:87-96 (1996). […]
The enzyme also can be detected based on the binding of specific ligands to the catalytic site which either immobilize the enzyme or label it with a probe such as dansyl, fluoracein, luciferase, green fluorescent protein or other reagent. […] The enzyme also can be detected based on the generation of fluorescent products following the hydrolysis of the epoxide. […]

Metabolic stability = format: in vitro ADME
[1] = tested on: LPS-induced thermal hyperalgesia; assay: LPS-induced thermal hyperalgesia, hind paw withdrawal latency test (Hargreaves); format: in vivo, rat; conditions: for LPS-induced thermal hyperalgesia, percent thermal withdrawal latency (TWL): topical in vehicle cream (Vanicream), 50 mg/kg, LPS 10 μg in hind paw, FIG. 1; for LPS-induced thermal hyperalgesia, dose dependence of percent TWL: topical in vehicle cream, LPS 10 μg, FIG. 2
Source text: The hyperalgesic response with the hind paw withdrawal test is considered to result from a combination of central and peripheral mechanisms (Kannan et al., “Endotoxin-induced local inflammation and hyperalgesia in rats mice, a new model for inflammatory pain,” Pharmacology 66:373-379 (1996)). We used the method of Hargreaves et al., “A new and sensitive method for measuring thermal nociception in cutaneous hyperalgesia”, Pain 32, 77-88 (1988) to quantify the pain response of rats treated with two sEH inhibitors and EETs. Pain was quantified using the hind paw withdrawal latency test. Male Sprague-Dawley rats (Charles River Laboratories, Inc., Wilmington, Mass.) weighing 250-300 g, were used. Animals were individually housed at UC Davis Animal Resource Facility under standard conditions with free access to food and water, and maintained for at least 1 week before the experiments. Each rat was used only once. All the experiments were performed during the daytime between 8.00 and 13.00 h (during the first phase of the light period of the diurnal cycle). Rats were first trained to the experimental chamber in three separate sessions. In the day of the experiments rats' basal response was measured and then they were treated with a neutral cream or compound containing formulated cream preceding an injection with 10 ug of endotoxin (Lipopolysaccharide, “LPS”) or capsaicin in the right hind paw to induce pain response. Pain response was then measured at 30, 60, 120 and 240 minutes post LPS or capsaicin injection. sEHIs were formulated by dissolving them in ethanol and mixing with cream in a ratio of 1:9. Eight animals per group were used. To assess thermal nociceptive responses, a commercially available device modeled after that described by Hargreaves et al., supra, was employed. This device consists of a glass surface upon which the rats are placed individually in Plexiglass cubicles (9×22×25 cm). The glass surface temperature is maintained at either 30.1° C. by a feedback-controlled, under-glass, forced-air heating system. The heating system is driven by a thermocouple attached to the bottom surface of the glass plate. The thermal nociceptive stimulus originates from a focused projection bulb mounted in a stimulus tower that is manually manipulated in a two-dimensional axis to permit the stimulus to be delivered to hind paw of each test subject. A timer is automatically actuated with the light source, and response latency is defined as the time required for the paw to show an abrupt withdrawal. Paw withdrawal is detected by a photodiode motion sensor mounted on the stimulus tower that stops the timer and terminates the stimulus. In all cases, a cut-off of 20 seconds is employed to avoid tissue injury. […]

[2] = tested on: LPS-elicited mechanical allodynia; assay: LPS-elicited mechanical allodynia, von Frey filaments; format: in vivo, rat; conditions: topical in vehicle cream; 50 mg/kg; LPS 10 μg; FIG. 3
Protocol: For the quantification of mechanical allodynia, a set of von Frey filaments with different diameters corresponding to different quantities of force applied were employed. The baseline responses of animals were first determined and than LPS was injected in the hind paw. Responses were measured 1 hr and 2 hrs after LPS injection. Eight animals per group were used. Rats' paws were stimulated with filaments of increasing diameter three times. The diameter of filaments that rats withdraw their paws were recorded.

[3] = tested on: carrageenan-elicited thermal hyperalgesia; assay: Carrageenan-elicited thermal hyperalgesia, paw withdrawal latency; format: in vivo, rat; conditions: carrageenan injected into ipsilateral paw at time 0; AUDA-be administered at 20 hours post-exposure; FIG. 6
Protocol: Animals were exposed to carrageenan at time 0 by injection into ipsilateral paw, the contralateral paw was left untreated. AUDA-be was administered at 20 hours post-exposure to the carrageenan. Filled diamonds are the withdrawal tests of the treated paw. Filled squares are the tests of the untreated paw. To assess thermal nociceptive responses, a commercially available device modeled after that described by Hargreaves et al., supra, was employed. This device consists of a glass surface upon which the rats are placed individually in Plexiglass cubicles (9×22×25 cm). The glass surface temperature is maintained at either 30.1° C. by a feedback-controlled, under-glass, forced-air heating system. The heating system is driven by a thermocouple attached to the bottom surface of the glass plate. The thermal nociceptive stimulus originates from a focused projection bulb mounted in a stimulus tower that is manually manipulated in a two-dimensional axis to permit the stimulus to be delivered to hind paw of each test subject. A timer is automatically actuated with the light source, and response latency is defined as the time required for the paw to show an abrupt withdrawal. Paw withdrawal is detected by a photodiode motion sensor mounted on the stimulus tower that stops the timer and terminates the stimulus. In all cases, a cut-off of 20 seconds is employed to avoid tissue injury. […]

| Structure (SMILES) | Effectiveness compared with other EETs in the methods of the invention (pain or itch) | Activity as an inhibitor of sEH (sEH) | Metabolic stability (Metabolic stability) | LPS-induced thermal hyperalgesia, percent thermal withdrawal latency (TWL) [1] | LPS-induced thermal hyperalgesia, dose dependence of percent TWL [1] | LPS-elicited mechanical allodynia, percent mechanical withdrawal threshold (MWT) [2] | Carrageenan-elicited thermal hyperalgesia, thermal withdrawal latency of paw (PWL) [3] |
| --- | --- | --- | --- | --- | --- | --- | --- |
| CCCCC/C=C\C[C@H]1O[C@H]1C/C=C\C/C=C\CCCC(=O)O [11,12-EET] | ineffective or less effective than other EETs |  |  |  |  |  |  |
| CCCCCCCCCCCCNC(=O)NC12CC3CC(CC(C3)C1)C2 [ADU, N-Adamantyl-N′-dodecyl urea] |  | particularly high activity on sEH | metabolically stable |  |  |  |  |
| CCCCOC(=O)CCCCCCCCCCCNC(=O)NC12CC3CC(CC(C3)C1)C2 [AUDA-be, 12-(3-Adamantan-1-yl-ureido)dodecanoic acid butyl ester] |  |  |  | block | block LPS-induced thermal hyperalgesia in a dose dependent way | block LPS-elicited mechanical allodynia | blocks carrageenan-elicited thermal hyperalgesia |
| CCOCCOCCOCCCCCNC(=O)NC12CC3CC(CC(C3)C1)C2 [compound 950, Adamantan-1-yl-3-{5-[2-(2-ethoxyethoxy)ethoxy]pentyl}urea] |  |  |  | block | block LPS-induced thermal hyperalgesia in a dose dependent way | block LPS-elicited mechanical allodynia |  |
